{"source": "patent US20050164370A1", "about": "(priority 2003, published 2005)", "key": {"cytokinin receptor AHK2": {"molecular_target": "T1, cytokinin receptor AHK2 (Arabidopsis thaliana, UniProt Q9C5U2)", "T1 sequence (Q9C5U2 1-1176)": "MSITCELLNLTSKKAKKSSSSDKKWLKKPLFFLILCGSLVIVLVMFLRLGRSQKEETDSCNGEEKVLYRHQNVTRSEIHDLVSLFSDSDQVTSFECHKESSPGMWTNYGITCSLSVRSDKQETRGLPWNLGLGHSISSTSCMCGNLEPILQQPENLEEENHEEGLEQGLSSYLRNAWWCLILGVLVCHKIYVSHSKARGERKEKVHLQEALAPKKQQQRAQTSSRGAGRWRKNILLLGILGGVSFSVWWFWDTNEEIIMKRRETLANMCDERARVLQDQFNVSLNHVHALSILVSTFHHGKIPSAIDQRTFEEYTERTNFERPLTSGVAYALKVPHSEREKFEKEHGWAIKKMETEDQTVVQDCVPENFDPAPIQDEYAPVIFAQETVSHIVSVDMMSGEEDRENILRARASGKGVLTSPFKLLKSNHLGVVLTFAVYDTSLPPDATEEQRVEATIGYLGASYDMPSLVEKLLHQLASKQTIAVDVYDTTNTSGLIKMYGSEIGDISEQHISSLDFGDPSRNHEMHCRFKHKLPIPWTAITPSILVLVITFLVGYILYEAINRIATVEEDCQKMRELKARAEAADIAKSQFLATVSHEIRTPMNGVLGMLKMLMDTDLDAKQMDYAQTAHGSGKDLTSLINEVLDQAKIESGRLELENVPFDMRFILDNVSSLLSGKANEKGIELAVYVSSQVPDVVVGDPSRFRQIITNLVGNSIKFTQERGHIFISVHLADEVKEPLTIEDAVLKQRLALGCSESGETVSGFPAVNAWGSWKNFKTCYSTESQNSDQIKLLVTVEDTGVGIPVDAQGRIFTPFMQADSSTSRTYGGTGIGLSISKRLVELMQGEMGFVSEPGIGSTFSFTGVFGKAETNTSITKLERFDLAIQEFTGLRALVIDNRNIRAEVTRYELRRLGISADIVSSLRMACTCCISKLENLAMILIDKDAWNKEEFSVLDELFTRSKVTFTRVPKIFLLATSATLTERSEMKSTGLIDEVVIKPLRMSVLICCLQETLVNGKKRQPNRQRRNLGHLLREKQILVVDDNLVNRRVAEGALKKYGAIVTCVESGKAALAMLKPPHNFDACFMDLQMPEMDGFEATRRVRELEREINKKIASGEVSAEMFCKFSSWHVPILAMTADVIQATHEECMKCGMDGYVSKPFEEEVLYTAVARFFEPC", "conditions": "TM182-AHK2, DOLU+Glu agar, 30° C. for 30 hours", "protocol": "(§1) A culture solution 10 μl (about 800 clones of yeast) of the transformed cells TM182-CRE1, TM182-AHK2, TM182-AHK2Δ and TM182-AHK3 produced by the example 12 was spotted on DOLU+Glu agar media containing 10 μM of trans-zeatin and cultured at 30° C. for 30 hours. After incubation, the growth state of the transformed cells was observed and photographed by a digital camera.\n(§2) Culture solutions of the transformed cells TM182-CRE1, TM182-AHK2Δ and TM182-AHK2 produced by the reference example 1 were spotted on DOLU+Glu agar media containing cytokinin in a variety of concentrations (1 nM, 10 nM, 100 nM, 1 μM, 10 μM, 100 μM) and cultured at 30° C. for 30 hours. After incubation, the growth state of the transformed cells was observed and photographed by a digital camera."}, "cytokinin receptor AHK2Δ": {"molecular_target": "T2, cytokinin receptor AHK2Δ (Arabidopsis thaliana, UniProt Q9C5U2)", "T2 sequence (Q9C5U2 196-1176)": "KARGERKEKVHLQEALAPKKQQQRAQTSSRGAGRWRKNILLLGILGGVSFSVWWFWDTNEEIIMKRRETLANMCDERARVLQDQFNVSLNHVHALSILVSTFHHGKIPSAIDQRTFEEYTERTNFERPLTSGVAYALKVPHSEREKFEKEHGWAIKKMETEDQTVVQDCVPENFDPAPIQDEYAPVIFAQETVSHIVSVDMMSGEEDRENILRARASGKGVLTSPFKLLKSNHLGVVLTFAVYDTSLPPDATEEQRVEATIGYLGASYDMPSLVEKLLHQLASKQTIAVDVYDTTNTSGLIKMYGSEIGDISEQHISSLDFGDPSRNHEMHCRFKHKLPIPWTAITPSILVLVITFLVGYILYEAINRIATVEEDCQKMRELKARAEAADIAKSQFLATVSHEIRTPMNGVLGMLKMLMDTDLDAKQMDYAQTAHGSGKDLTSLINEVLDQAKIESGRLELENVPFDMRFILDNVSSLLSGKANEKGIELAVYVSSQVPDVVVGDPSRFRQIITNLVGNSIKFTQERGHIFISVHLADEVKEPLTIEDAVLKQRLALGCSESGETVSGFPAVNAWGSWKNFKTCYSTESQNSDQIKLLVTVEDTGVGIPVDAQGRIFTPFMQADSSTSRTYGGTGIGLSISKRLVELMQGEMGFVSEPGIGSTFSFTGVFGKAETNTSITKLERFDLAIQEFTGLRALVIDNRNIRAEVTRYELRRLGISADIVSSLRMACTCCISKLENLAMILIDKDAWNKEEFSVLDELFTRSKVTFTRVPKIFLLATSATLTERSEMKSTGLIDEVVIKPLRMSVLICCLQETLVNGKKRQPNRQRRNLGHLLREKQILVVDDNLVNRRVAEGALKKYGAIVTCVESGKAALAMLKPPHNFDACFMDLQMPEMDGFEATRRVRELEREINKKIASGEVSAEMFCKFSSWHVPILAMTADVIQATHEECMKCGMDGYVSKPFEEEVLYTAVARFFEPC", "conditions": "TM182-AHK2Δ, DOLU+Glu agar, 30° C. for 30 hours", "protocol": "as §1, §2"}, "cytokinin receptor CRE1": {"molecular_target": "cytokinin receptor CRE1 (Arabidopsis thaliana, UniProt Q9C5U0, S567G/T1018A)", "sequence (Q9C5U0 24-1080 S567G/T1018A)": "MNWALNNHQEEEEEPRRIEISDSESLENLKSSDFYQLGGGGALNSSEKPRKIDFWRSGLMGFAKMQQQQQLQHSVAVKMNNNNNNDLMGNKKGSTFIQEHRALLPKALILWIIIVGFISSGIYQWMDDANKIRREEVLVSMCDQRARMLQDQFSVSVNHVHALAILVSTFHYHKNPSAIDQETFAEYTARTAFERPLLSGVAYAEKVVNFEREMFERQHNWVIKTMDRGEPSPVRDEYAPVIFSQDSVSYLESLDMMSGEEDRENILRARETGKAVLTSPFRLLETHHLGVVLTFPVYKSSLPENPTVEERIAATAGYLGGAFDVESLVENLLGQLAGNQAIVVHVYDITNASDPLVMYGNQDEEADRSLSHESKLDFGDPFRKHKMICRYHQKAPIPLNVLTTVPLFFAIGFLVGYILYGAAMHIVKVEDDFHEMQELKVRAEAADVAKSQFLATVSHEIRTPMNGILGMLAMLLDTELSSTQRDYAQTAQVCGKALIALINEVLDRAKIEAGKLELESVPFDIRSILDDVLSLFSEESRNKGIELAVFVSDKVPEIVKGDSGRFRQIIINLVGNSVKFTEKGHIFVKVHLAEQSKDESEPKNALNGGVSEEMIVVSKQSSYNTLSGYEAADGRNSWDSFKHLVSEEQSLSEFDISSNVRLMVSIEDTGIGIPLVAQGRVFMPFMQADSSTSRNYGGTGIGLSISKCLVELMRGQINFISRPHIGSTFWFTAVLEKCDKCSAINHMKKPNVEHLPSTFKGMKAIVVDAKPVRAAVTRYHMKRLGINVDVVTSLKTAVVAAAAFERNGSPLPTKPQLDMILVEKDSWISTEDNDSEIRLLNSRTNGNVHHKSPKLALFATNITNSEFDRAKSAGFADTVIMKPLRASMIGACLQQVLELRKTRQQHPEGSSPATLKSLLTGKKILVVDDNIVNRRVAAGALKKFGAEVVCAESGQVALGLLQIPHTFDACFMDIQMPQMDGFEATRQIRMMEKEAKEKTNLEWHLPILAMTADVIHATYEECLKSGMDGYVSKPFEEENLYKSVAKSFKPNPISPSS", "conditions": "TM182-CRE1, DOLU+Glu agar, 30° C. for 30 hours", "protocol": "as §1, §2"}, "[1]": {"tested_on": "transformed cells TM182-AHK2-CYC1IPT4", "conditions": "TM182-AHK2-CYC1IPT4, DOHLU+Glu agar containing 10 μM trans-zeatin, 30° C. for 30 hours", "protocol": "After incubation, the growth state of the transformed cells was observed and photographed by a digital camera."}}}
{"compound": "C/C(=C\\CNc1ncnc2nc[nH]c12)CO", "note": "[trans-zeatin]", "values": [{"measurement": "lowest observed supply concentration in which the transformed cells could be grown", "setting": "cytokinin receptor AHK2; 1 nM to 100 μM tested", "value": 1, "unit": "µM"}, {"measurement": "growth state of the transformed cells as compared with media containing no trans-zeatin", "setting": "cytokinin receptor AHK2; 10 μM", "value": "high growth"}, {"measurement": "lowest observed supply concentration in which the transformed cells could be grown", "setting": "cytokinin receptor AHK2Δ; 1 nM to 100 μM tested", "value": 100, "unit": "nM"}, {"measurement": "growth state of the transformed cells as compared with media containing no trans-zeatin", "setting": "cytokinin receptor AHK2Δ; 10 μM", "value": "high growth"}, {"measurement": "lowest observed supply concentration in which the transformed cells could be grown", "setting": "cytokinin receptor CRE1; 1 nM to 100 μM tested", "value": 10, "unit": "µM"}, {"measurement": "growth state of the transformed cells as compared with media containing no trans-zeatin", "setting": "cytokinin receptor CRE1; 10 μM", "value": "high growth"}, {"measurement": "growth state of the transformed cells", "setting": "[1]", "value": "observed to grow"}]}
